We go through 1 compound from patent US20030130180A1, “Utilization of an aminopeptidase inhibitor” (priority 2000, published 2003).

Each structure is given as a SMILES string.

Assay [1] deals with tumor cells. The conditions noted are these: in vitro, matrigel analytic system; cited from earlier work.
Assay [2] has as its system tumor cells and immune cells. Briefly: Cell-biological experiments on blocking of polarization of tumor cells and immune cells. The following applies: general statement. Type of assay: cell-based. From the text: By means of a method of simultaneously detecting a number of cell surface proteins, it has been established that aminopeptidases will control cell surface proteins which are not part of the class of proteolytic enzymes, but belong to the class of the adhesion molecules, which adhesion molecules—in a certain combination and geometric array—will be decisive for the polarization of the cells. Consequently, aminopeptidases appear to be superordinate control proteins in a protein network consisting of up to 30 different cell surface protein species which—through specific interaction with one another—will control polarization of tumor cells and other invasive cells such as immune cells and which are listed above. The inhibition of at least one aminopeptidase will lead to a reproducible modification of surface protein combinations on the cell surface which will always also involve a modification of CD13. […] The term polarization as used here shall denote a process in which a primarily spherical cell will transition into an oblong, elongated cell shape, via various intermediate states. This process which constitutes a change of shape controlled by the complex protein network is the prerequisite for cell migration, since only cells of oblong shape are capable of migrating. The polarization process therefore needs to precede all cell migration processes, including invasion. […]

`CCCCC[C@H](CC(=O)NO)C(=O)N[C@H](C(=O)N1CCC[C@H]1CO)C(C)C` [actinonin]: the tumor cell invasion entry in assay [1] was “do not have an effect”. Further, in assay [2], the “effectiveness as aminopeptidase inhibitor blocking polarization” value is “particularly effective”.
